According to ChEMBL document CHEMBL5625232, “Development of selective class I protein arginine methyltransferase inhibitors through fragment-based drug design approach” (Eur J Med Chem, 2023):
Values after ≈ are worked out from the molar mass of the structure shown.

Key:
[1] = biological target: T1, Histone-lysine N-methyltransferase SUV39H1 (Homo sapiens) (UniProt O43463); assay: Displacement of 3H-SAM from SUV39H1 (unknown origin) using biotinylated-histone H3 peptide as substrate at 10 uM incubated for 45 mins by SPA assay relative to control
T1 sequence (whole entry): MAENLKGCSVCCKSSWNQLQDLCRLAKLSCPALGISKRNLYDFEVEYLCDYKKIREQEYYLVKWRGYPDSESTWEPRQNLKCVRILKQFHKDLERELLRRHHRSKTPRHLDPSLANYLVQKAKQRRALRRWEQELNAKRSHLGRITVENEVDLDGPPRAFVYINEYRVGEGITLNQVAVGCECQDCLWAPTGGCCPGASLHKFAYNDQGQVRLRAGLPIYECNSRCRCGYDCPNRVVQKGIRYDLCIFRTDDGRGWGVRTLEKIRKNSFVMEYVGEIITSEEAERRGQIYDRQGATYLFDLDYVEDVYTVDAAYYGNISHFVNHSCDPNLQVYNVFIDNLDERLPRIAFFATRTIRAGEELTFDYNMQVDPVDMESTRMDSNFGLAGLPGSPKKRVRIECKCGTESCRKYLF

[2] = Lipophilicity, log D of compound in 1-octanol at pH 7.4 incubated for 4 hrs by HPLC-UV analysis; type: physicochemical; details: 1-octanol/aqueous phase
[3] = Stability in human plasma assessed as compound remaining measured after 2 hrs by LC-MS/MS analysis; type: ADME, cell-free; details: read-out: Stability
[4] = Aqueous solubility of compound at pH 7.4 incubated for 24 hrs by HPLC-UV spectroscopy; type: physicochemical; details: aqueous medium
[5] = biological target: T2, Histone-lysine N-methyltransferase SMYD3 (Homo sapiens) (UniProt Q9H7B4); assay: Displacement of 3H-SAM from SMYD3 (unknown origin) using biotinylated-MAP3K2 as substrate at 10 uM incubated for 45 mins by SPA assay relative to control
T2 sequence (whole entry): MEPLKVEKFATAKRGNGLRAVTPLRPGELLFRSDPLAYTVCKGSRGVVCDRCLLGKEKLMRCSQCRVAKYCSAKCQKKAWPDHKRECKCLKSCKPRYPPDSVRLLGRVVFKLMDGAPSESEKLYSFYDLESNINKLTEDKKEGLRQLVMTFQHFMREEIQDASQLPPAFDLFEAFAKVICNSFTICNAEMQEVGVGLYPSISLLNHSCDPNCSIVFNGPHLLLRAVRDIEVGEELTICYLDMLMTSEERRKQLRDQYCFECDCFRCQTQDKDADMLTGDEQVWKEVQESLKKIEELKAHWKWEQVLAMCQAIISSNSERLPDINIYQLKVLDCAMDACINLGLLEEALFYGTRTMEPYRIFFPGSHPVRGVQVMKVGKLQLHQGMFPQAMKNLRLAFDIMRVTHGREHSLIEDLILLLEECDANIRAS

[6] = Metabolic stability in human liver microsomes assessed as half life preincubated for 10 mins followed by NADPH addition measured for 60 mins by LC-MS/MS analysis; type: ADME, Microsome; details: time 70 min
[7] = biological target: Histone-lysine N-methyltransferase, H3 lysine-79 specific (Homo sapiens) (UniProt Q8TEK3); assay: Displacement of 3H-SAM from DOT1L (unknown origin) at 30 uM incubated for 1 hr in presence of substrate by SPA assay relative to control
Histone-lysine N-methyltransferase, H3 lysine-79 specific (Homo sapiens), sequence (Q8TEK3 whole entry, looked up): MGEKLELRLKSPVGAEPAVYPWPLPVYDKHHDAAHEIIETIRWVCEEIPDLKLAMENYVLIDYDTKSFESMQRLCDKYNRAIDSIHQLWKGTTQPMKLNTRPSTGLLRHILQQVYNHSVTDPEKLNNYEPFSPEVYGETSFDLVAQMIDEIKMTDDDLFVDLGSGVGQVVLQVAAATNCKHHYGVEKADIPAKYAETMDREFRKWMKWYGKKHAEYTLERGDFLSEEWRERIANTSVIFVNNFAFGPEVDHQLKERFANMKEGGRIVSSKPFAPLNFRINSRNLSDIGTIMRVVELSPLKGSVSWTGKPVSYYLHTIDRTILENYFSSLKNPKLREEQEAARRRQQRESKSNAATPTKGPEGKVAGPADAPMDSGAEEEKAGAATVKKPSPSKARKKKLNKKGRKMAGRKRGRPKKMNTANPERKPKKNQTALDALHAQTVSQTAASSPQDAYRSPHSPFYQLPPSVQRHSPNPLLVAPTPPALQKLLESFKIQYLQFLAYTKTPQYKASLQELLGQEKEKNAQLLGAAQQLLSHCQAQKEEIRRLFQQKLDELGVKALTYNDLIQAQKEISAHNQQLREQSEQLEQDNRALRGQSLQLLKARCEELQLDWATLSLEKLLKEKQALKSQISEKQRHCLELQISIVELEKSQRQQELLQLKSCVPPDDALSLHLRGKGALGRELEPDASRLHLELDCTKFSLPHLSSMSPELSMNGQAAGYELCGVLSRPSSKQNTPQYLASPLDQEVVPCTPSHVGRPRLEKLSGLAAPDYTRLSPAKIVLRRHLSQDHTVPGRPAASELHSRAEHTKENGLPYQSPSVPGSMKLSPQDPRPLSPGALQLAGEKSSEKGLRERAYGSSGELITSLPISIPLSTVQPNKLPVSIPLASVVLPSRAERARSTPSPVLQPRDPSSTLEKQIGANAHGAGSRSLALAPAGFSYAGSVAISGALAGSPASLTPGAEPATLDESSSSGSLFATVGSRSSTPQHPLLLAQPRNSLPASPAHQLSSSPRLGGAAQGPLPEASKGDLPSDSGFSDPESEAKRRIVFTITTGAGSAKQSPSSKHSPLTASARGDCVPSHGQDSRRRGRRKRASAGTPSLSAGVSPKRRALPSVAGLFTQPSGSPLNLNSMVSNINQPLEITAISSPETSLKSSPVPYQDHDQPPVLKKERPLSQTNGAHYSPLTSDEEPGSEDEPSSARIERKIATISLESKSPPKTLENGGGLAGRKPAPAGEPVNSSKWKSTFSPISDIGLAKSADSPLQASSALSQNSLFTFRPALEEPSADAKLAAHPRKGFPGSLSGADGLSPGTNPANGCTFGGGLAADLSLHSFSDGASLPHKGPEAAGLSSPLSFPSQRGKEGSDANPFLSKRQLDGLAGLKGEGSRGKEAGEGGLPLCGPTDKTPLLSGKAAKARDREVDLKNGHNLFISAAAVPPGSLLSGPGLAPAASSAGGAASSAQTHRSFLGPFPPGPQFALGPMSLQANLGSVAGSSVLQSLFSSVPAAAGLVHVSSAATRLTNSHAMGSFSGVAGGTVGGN

[8] = biological target: T1, Histone-lysine N-methyltransferase SUV39H1 (Homo sapiens); assay: Displacement of 3H-SAM from SUV39H1 (unknown origin) using biotinylated-histone H3 peptide as substrate at 30 uM incubated for 45 mins by SPA assay relative to control
[9] = biological target: T2, Histone-lysine N-methyltransferase SMYD3 (Homo sapiens); assay: Displacement of 3H-SAM from SMYD3 (unknown origin) using biotinylated-MAP3K2 as substrate at 30 uM incubated for 45 mins by SPA assay relative to control

| SMILES | inhibition [1] [%] | logD at 4 h [2] | remaining at 2 h [3] [%] | solubility at 24 h [4] [mg/mL] | inhibition [5] [%] | half-life [6] [min] | inhibition [7] [%] | inhibition [8] [%] | inhibition [9] [%] |
| --- | --- | --- | --- | --- | --- | --- | --- | --- | --- |
| CNCCN1CC[C@@H](NC(=O)c2ccc3c(Nc4ccc(CN)cc4)ncnc3c2)C1 | < 25 | -2.27 | 71.2 | 0.21 (≈ 501 µM) | < 25 | 23 |  |  |  |
| CNCCN1CC[C@H](NC(=O)c2ccc3c(Nc4ccc(CN)cc4)ncnc3c2)C1 | < 25 |  |  |  | < 25 |  |  |  |  |
| CNCCN1CCC(NC(=O)c2ccc3c(Nc4ccc(CN)cc4)ncnc3c2)C1 (racemic) |  | -2.16 | 91.3 | 0.187 (≈ 446 µM) |  | 10.9 | 11 | < 25 | < 25 |
